This is an account of results in publication PMC12598616, “Design and optimization of caspase-1-responsive fluorescent probes for pyroptosis imaging and anti-pyroptosis drug screening” (Chemical Science, 2025).

For assay [1], the system named is Cas-1 in chondrocyte spheroids. The experiment in a line: Imaging in chondrocyte 3D cell spheroids. It is filed as cell-based. To be noted: H2O2 2 mM 30, 60, 90 min; FPy1 5 μM; compared with 2D cultures. The procedure:
The decline in chondrocyte function plays a crucial role in the pathogenesis of OA. Inflammasome-mediated chondrocyte pyroptosis has been closely associated with matrix degradation and cartilage degeneration in OA.[38] To model OA in vitro, primary chondrocytes were stimulated with H2O2 (2 mM) for different durations, followed by staining with FPy1 (5 μM) and fluorescence imaging to monitor the progression of pyroptosis under oxidative stress. […] To better mimic the in vivo pathological features of OA, primary chondrocytes were also cultured as three-dimensional spheroids and stimulated with H2O2. […] Furthermore, we evaluated the capability of FPy1 to monitor pyroptosis progression at different stages of OA in a mouse model. […] The pathological manifestations in the corresponding tissues became more pronounced with longer modeling periods, consistent with the fluorescence imaging results obtained using FPy1. […]
Chondrocytes were isolated from articular cartilage and resuspended in 1mL DMEM/F12 medium containing 10 μM ITS-A. A total of […] were counted and transferred into centrifuge tubes. […]
The chondrocytes or 3D cell spheroids were seeded in dishes and cultured overnight. […] Fluorescence imaging was then performed with an excitation of 514 nm, and signals were […]

Assay [2] concerns activated Cas-1 in primary peritoneal macrophages. The experiment in a line: High-content screening / fluorescence imaging for caspase-1 modulators in primary peritoneal macrophages. It is filed as cell-based, mouse. To be noted: LPS then Nig 10 μM 2 h; FPy1 5 μM. The text has this: The efficient and rapid discovery of Cas-1 modulators is of significant importance considering the therapeutic potential of Cas-1 in various diseases.[39,40] Therefore, we employed FPy1 to construct a high-content screening system aimed at identifying Cas-1 modulators. The level of activated Cas-1 in cells is influenced by multiple factors. To reduce the impact of factors that affect Cas-1 activation in cells, we utilized the NLRP3 inflammasome-mediated Cas-1 activation model, administering the drug during the second stage where the zymogen was converted into activated Cas-1. MCC950, a selective NLRP3 inflammasome inhibitor that could suppress Cas-1 activation, was selected as the positive drug.[41] […] To validate the efficacy of the Cas-1 modulator screening system (Fig. 6a), we first observed the fluorescence images of PMs stained with FPy1 (5 μM) in the control group, model group, and positive drug group. […] Subsequently, the impact of 25 natural products (10 μM) on activated Cas-1 were studied using high-content analysis (Fig. S20). […] To determine whether deoxyshikonin directly binds to Cas-1 and inhibits its activity, we conducted fluorescence detection following co-incubation of deoxyshikonin, FPy1 and Cas-1. […]
Harvested rat discs were fixed in 4 % buffered paraformaldehyde for 24 hours, decalcified in 10 % ethylenediaminetetraacetic acid (EDTA, Solarbio, E8030) solution for 1 month, embedded in paraffin, and sectioned at a thickness of 5 μm. […] Stained sections were evaluated by three independent raters, blinded to the research protocol, and measurements were averaged for statistical analysis. […]
In vivo fluorescence imaging of intervertebral disc degeneration
Twelve rats were modeled with needle puncture-induced intervertebral disc degeneration at the Co5/6, Co6/7 and Co 7/8 levels. […] In vivo fluorescence images were acquired using an in vivo Imaging System (PerkinElmer). […]
In vivo fluorescence imaging of osteoarthritis […]

For the substance “–FLTDG– [FPy1, RhoB donor, hNR quencher]”, the “fluorescence enhancement in chondrocyte spheroids” value in assay [1] is on record as “more pronounced fluorescence enhancement in chondrocyte spheroids than in two-dimensional cultures”. Besides, in assay [2], the “fluorescence of FPy1-stained macrophages, model vs control group” value is listed as “significant fluorescence enhancement compared to the control group”.
